# According to patent US8816151B2, “Stat5b transgenic mice and methods of use thereof” (Georgia Health Sciences University Research Institute, Inc., priority 2012, dated 2014):
# Experiments:
# [1] = tested on: CD8+ lymphoma cells derived from F1.Stat5bTg mice; test: In vivo hollow fiber assay, lymphoma cells from F1.Stat5bTg mice; set-up: species or system mouse; conditions: hollow fiber assay (data not shown)
# [2] = tested on: Ckmt2, Dgat2, Myl4, Csrp3, Nppa, Sln and Myh6; test: Real-time RT-PCR of genes up-regulated in NOD.Stat5bTg mice; type: in vivo, mouse; conditions: normalized with GAPDH, versus vehicle-treated NOD.Stat5bTg mice
# Experimental: (§1) AG490 (30 mg/kg/day) and STAT5 inhibitor CNH (40 mg/kg/day) purchased from Calbiochem (La Jolla, Calif.) were injected intraperitoneally into F1 and NOD.Stat5b transgenic lines. Xanthohumol and apigenin (>98% purity by HPLC) purchased from Sigma (St. Louis, Mo.) were used in the chemoprevention experiments. Xanthohumol (100 mg/kg/day) and Apigenin (200 mg/kg/day) were injected alone or in combination intraperitoneally into NOD.Stat5b^Tg mice.
# RNA was isolated from thymus using the miRACLE™ total RNA isolation kit (Jinfiniti Biosciences) or RNeasy® kit (QIAGEN) and used for microarray and real-time RT-PCR analyses. The Illumina's MouseRef-8 v2.0 Expression BeadChip was used for transcriptional analysis. This BeadChip targets approximately 25,600 well-annotated RefSeq transcripts, over 19,100 unique genes, and enables the interrogation of eight samples in parallel. Probe preparation and hybridization were carried out according to Manufacture's recommendation. The microarray data are MIAME compliant and have been deposited in NCBI Gene Expression Omnibus and are accessible through GEO Series accession number GSE31526.
# Real-time PCR was carried out in 96-well PCR plates using the ABI Prism 7900HT real-time PCR instrument (Applied Biosystems, Roche). […] The fluorescent signal was measured at the end of the annealing/elongation step in each cycle.
# phosphorylated STAT5 = test: STAT5 phosphorylation (p-STAT5) by Western blotting and FACS in treated NOD.Stat5bTg mice; type: in vivo, mouse; conditions: for p-STAT5 expression in thymocytes: NOD.Stat5bTg mice, treatment for 2 weeks, Western analysis and FACS; for STAT5 activation (pSTAT5) in peripheral blood CD8+ T cells: 10-week old NOD.Stat5bTg mice treated for 2 weeks, FACS
# Experimental: as §1
# (§2) Single-cell suspensions from thymus, spleen, lymph nodes and hollow fibers were stained and analyzed using a fluorescence-activated cell sorting (FACS) flow cytometer (BD Biosciences) with CELLQuest 3.3 software (Becton Dickinson, San Jose, Calif.). All antibodies were purchased from BD PharMingen (San Diego, Calif.) except anti-CD150-PE from Biolegend (San Diego, Calif.). For intracellular staining, cells were fixed and permeablized using Cytofix/Cytoperm solution (BD PharMingen), followed by P-Stat5 (pY694)-APC staining.
# Whole cell extracts were prepared from thymus or spleens using RIPA lysis buffer (Santa Cruz) supplemented with protease inhibitors. Western blot analysis was carried out as reported (29) by probing the blots with rabbit anti-phospho-Stat5 (Tyr694), rabbit anti-Stat5 or mouse anti-β-actin (Santa Cruz biotechnology), washed, and incubated with a horseradish peroxidase-conjugated anti-rabbit or anti-mouse antibody (Santa Cruz biotechnology). Immunopositive bands were photographed (Versadoc; Bio-Rad) after blots were developed with an enhanced chemiluminescent substrate (Pierce Chemical Co).
# CD150 = CD150 expression by FACS in treated NOD.Stat5bTg mice; type: in vivo, mouse; conditions: for CD150 expression on CD8+ thymocytes: NOD.Stat5bTg mice, treatment for 2 weeks, intraperitoneal; for CD150 expression in peripheral blood CD8+ T cells: 10-week old NOD.Stat5bTg mice treated for 2 weeks
# Experimental: as §1, §2
# [3] = tested on: Lymphoma cells from NOD.Stat5bTg mice; test: In vivo hollow fiber assay, lymphoma cells from NOD.Stat5bTg mice; set-up: species or system mouse; conditions: lymphoma cells from NOD.Stat5bTg mice in hollow fibers in nude mice, 4 days of daily treatment
# Source text: Cellmax implant membranes were purchased from Spectrum Laboratories Inc. (Rancho Dominguez, Calif.). Lymphoma cells from NOD.Stat5b^Tg mice were harvested, suspended in cold phosphate buffered saline (PBS) and introduced into a 15 cm length of hollow fiber. The fiber was heat-sealed at 20 mm intervals, and each segment was separated using a pair of scissors. Intraperitoneal implantation in methoxyflurane anesthetized 6 week-old nude mice were accomplished via a dorsal incision which allowed passage of the hollow fiber into abdomen. The abdominal wall is closed using skin staples. After 3 days of transplantation, mice with implants were treated daily with either AG490 (30 mg/kg/day) or CNH (40 mg/kg/day). Single cell suspensions were obtained after 4 days of treatment by cutting off the sealed ends of the fibers. Cells were then washed twice with PBS and further processed for flow cytometry.
# as §2, with “For intracellular staining, cells were fixed and permeablized using Cytofix/Cytoperm solution (BD PharMingen), followed by P-Stat5 (pY694)-APC staining.” left out
# CD8+ thymocytes = test: Number of CD8+ thymocytes in treated NOD.Stat5bTg mice; type: in vivo, mouse; conditions: treatment for 2 weeks
# Experimental: AG490 (30 mg/kg/day) and STAT5 inhibitor CNH (40 mg/kg/day) purchased from Calbiochem (La Jolla, Calif.) were injected intraperitoneally into F1 and NOD.Stat5b transgenic lines. Xanthohumol and apigenin (>98% purity by HPLC) purchased from Sigma (St. Louis, Mo.) were used in the chemoprevention experiments. Xanthohumol (100 mg/kg/day) and Apigenin (200 mg/kg/day) were injected alone or in combination intraperitoneally into NOD.Stat5b^Tg mice. Single-cell suspensions from thymus, spleen, lymph nodes and hollow fibers were stained and analyzed using a fluorescence-activated cell sorting (FACS) flow cytometer (BD Biosciences) with CELLQuest 3.3 software (Becton Dickinson, San Jose, Calif.). All antibodies were purchased from BD PharMingen (San Diego, Calif.) except anti-CD150-PE from Biolegend (San Diego, Calif.). For intracellular staining, cells were fixed and permeablized using Cytofix/Cytoperm solution (BD PharMingen), followed by P-Stat5 (pY694)-APC staining.
# [4] = tested on: lymphoma in NOD.Stat5bTg mice; test: Lymphomagenesis in NOD.Stat5bTg mice; type: in vivo, mouse; conditions: 5 week-old NOD.Stat5bTg mice, three cycles of 3-week on and 3-week off
# Source text: In several experiments, mice were monitored for tumors through physical examination. Mice showing sufficient signs of pain and suffering including thymic and cervical lymphoid enlargement were euthanized for a complete necropsy. Final diagnosis of disease was established by clinical, pathologic and FACS analysis. Images of H&E staining were visualized with an Axiophot I microscope (Carl Zeiss) equipped with a Plan Neofluar 40X objective (FIG. 1c). Images were captured with an Axiocam color CDD camera, and treated on a computer with Axiovision software (Carl Zeiss).
# as §1
# Since AG490 and STAT5b inhibitor CNH can inhibit STAT5 function and CD150 expression, they could delay lymphomagenesis. […] STAT5 inhibitors are potentially very effective in treating cancers with fewer unpleasant side effects. To test this possibility, CNH (40 mg/kg/day) was used to treat 5 week-old NOD.Stat5^Tg mice with three cycles of 3-week on and 3-week off.
SMILES,survival of CD8+ lymphoma cells [1],"expression of genes up-regulated in NOD.Stat5bTg mice (Ckmt2, Dgat2, Myl4, Csrp3, Nppa, Sln and Myh6) in thymocytes [2]",p-STAT5 expression in thymocytes (phosphorylated STAT5),CD150 expression on CD8+ thymocytes (CD150),apoptosis of lymphoma cells (Annexin V) [3],number of CD8+ thymocytes (CD8+ thymocytes),STAT5 activation (pSTAT5) in peripheral blood CD8+ T cells (phosphorylated STAT5),CD150 expression in peripheral blood CD8+ T cells (CD150),age before which treated mice were free of lymphomas [4],percentage of treated mice that developed lymphoma by 30 weeks of age [4]
N#C/C(=C/c1ccc(O)c(O)c1)C(=O)NCc1ccccc1 [AG490],did not alter,did not significantly down-regulate,dramatic decrease,inhibited,significantly increased,greatly decreased,,,,
O=c1cc(-c2ccc(O)cc2)oc2cc(O)cc(O)c12 [Apigenin],,,,,,,significantly inhibit,significantly inhibit,,
"O=C(NN=Cc1coc2ccccc2c1=O)c1cccnc1 [CNH, chromone-based nicotinyl hydrazone]",did not alter,did not significantly down-regulate,did not decrease,significantly decreased,significantly increased,significantly decreased,,,≥ 27 weeks,17%
COc1cc(O)c(CC=C(C)C)c(O)c1C(=O)/C=C/c1ccc(O)cc1 [Xanthohumol],,,,,,,significantly inhibit,significantly inhibit,,
